Patent US12527886B2, “Radiopharmaceuticals and composition for thrombus imaging” (THE ASAN FOUNDATION, priority 2020, dated 2026)

Columns and labels:
[1] = Stability of Tc-99m labeled compound, labeling purity by HPLC; type: physicochemical
Method: 2 mL of Tc-99m was added dropwise to a lyophilized vial including 0.1 mg of GP-104, 15 μg of SnCl2, and 10 μg of cysteine, the vial was allowed to stand at room temperature for 10 minutes, and the reaction was terminated by adjusting pH to 7 using a NaOH solution. Labeling purity was confirmed to be 93.21% by HPLC (analysis conditions: Luna C18 250×4.6 mm, phosphate buffer:acetonitrile (100:0, 0 to 5 minutes; 80:20, 5 to 10 minutes; 80:20, 17 minutes; 100:0, 17.1 minutes). 100:0. 20 min), 1.0 mL/min, UV=280 nm).
In order to confirm the effect of cysteine addition after the reaction, the following experiment was performed: 0.1 mg of GP-104 was dissolved in water for injection, the pH was adjusted to about 3.5 when 10 μL of SnCl2 (1.5 mg/mL) and 2 mL of Tc-99m were added thereto, and the resulting mixture was allowed to stand at room temperature for 10 minutes. The reaction was terminated by adjusting the pH to 7 using a NaOH solution and 10 μL of cysteine (1.0 mg/mL). Labeling purity was confirmed to be 91.4% using HPLC in the same manner as in Example 2-7.
After 0.1 mg of GP-104 was dissolved in water for injection, pH was adjusted to about 3.5 and the resulting solution was allowed to stand at room temperature for 10 minutes when 10 μL of SnCl2 (1.5 mg/mL), 10 μL of cysteine (1.0 mg/mL) and 2 mL of Tc-99m were added thereto, and the reaction was terminated by adjusting the pH to 7 using a NaOH solution. Labeling purity was confirmed to be 94.84% using HPLC in the same manner as in Example 2-7.
HCl and NaOH was additionally added dropwise to the solution of Example 2-8 to perform a stability evaluation by adjusting the final pH of the solution to acidic (pH 5.5) and basic (pH 8.5) conditions, and labeling purity was confirmed using HPLC in the same manner as in Example 2-7.
HCl and NaOH was additionally added dropwise to the solution of Example 2-9 to perform a stability evaluation by adjusting the final pH of the solution to acidic (pH 5.5) and basic (pH 8.5) conditions, and labeling purity was confirmed using HPLC in the same manner as in Example 2-7.
HCl and NaOH was additionally added dropwise to the solution of Example 2-10 to perform a stability evaluation by adjusting the final pH of the solution to acidic (pH 5.5) and basic (pH 8.5) conditions, and labeling purity was confirmed using HPLC in the same manner as in Example 2-7.
0.1 mg of GP-105 was dissolved in water for injection, the pH was adjusted to about 3.5 when 10 μL of SnCl2 (1.5 mg/mL) and 2 mL of Tc-99m were added thereto, and the resulting mixture was allowed to stand at room temperature for 10 minutes. The reaction was terminated by adjusting the pH to 7 using a NaOH solution and 10 μL of cysteine (1.0 mg/mL). Labeling purity was confirmed to be 98.1% using HPLC in the same manner as in Example 2-7.
HCl and NaOH was additionally added dropwise to the solution of Example 2-12 to perform a stability evaluation by adjusting the final pH of the solution to acidic (pH 5.5) and basic (pH 8.5) conditions, and labeling purity was confirmed using HPLC in the same manner as in Example 2-7.
HCl and NaOH was additionally added dropwise to the solution of Example 2-13 to perform a stability evaluation by adjusting the final pH of the solution to acidic (pH 5.5) and basic (pH 8.5) conditions, and labeling purity was confirmed using HPLC in the same manner as in Example 2-7.
HCl and NaOH was additionally added dropwise to the solution of Example 2-14 to perform a stability evaluation by adjusting the final pH of the solution to acidic (pH 5.5) and basic (pH 8.5) conditions, and labeling purity was confirmed using HPLC in the same manner as in Example 2-7.

[2] = molecular target: T1, glycoprotein IIb/IIIa (Rattus norvegicus, UniProt A0A8I6GGN2+Q8R2H2); experiment: Glycoprotein IIb/IIIa specific uptake in thrombotic disease model, gamma counter / microSPECT; type: in vivo, rats
T1 construct: a disease model in which a thrombus was formed with glycoprotein IIb/IIIa overexpressed; from tissue; host or cells: in vivo rat carotid artery thrombus (ferric chloride model)
Description: After 6-week-old rats were anesthetized to make a thrombotic disease model, the carotid artery was secured by opening the skin on the carotid artery side. Then, a filter paper soaked with a 5% ferric chloride solution was exposed on the artery, and then washed three times or more with physiological saline, and the incised skin was sutured again to make a model. […]

[3] = gamma counter, sacrificed at the 2nd hour

T1 sequence (A0A8I6GGN2 32-1037): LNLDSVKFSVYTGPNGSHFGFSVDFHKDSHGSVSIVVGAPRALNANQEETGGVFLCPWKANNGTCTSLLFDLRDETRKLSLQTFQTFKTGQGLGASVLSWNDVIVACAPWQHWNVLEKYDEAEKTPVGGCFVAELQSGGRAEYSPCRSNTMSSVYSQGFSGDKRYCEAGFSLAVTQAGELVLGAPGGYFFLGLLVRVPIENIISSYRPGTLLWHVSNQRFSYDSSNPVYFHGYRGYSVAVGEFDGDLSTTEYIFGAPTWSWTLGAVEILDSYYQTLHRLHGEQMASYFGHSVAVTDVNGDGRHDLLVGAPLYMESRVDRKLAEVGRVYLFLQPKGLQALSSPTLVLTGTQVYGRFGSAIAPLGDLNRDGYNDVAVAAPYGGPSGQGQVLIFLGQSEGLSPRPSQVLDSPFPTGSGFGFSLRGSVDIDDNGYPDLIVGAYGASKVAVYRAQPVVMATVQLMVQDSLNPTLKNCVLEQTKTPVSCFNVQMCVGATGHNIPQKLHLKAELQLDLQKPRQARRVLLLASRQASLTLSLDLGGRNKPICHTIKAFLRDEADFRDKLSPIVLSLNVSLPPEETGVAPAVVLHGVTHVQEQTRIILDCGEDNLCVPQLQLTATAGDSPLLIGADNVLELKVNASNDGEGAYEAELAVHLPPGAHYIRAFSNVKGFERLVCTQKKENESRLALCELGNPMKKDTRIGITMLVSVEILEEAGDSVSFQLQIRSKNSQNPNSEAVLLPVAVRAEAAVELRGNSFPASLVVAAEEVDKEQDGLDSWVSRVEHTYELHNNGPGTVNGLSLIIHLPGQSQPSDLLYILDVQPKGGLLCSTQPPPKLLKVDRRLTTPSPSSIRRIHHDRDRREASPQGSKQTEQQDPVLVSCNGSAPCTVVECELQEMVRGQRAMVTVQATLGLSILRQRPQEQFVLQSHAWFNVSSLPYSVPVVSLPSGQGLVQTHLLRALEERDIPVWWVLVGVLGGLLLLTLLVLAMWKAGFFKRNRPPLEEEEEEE
T1 sequence (Q8R2H2 26-787): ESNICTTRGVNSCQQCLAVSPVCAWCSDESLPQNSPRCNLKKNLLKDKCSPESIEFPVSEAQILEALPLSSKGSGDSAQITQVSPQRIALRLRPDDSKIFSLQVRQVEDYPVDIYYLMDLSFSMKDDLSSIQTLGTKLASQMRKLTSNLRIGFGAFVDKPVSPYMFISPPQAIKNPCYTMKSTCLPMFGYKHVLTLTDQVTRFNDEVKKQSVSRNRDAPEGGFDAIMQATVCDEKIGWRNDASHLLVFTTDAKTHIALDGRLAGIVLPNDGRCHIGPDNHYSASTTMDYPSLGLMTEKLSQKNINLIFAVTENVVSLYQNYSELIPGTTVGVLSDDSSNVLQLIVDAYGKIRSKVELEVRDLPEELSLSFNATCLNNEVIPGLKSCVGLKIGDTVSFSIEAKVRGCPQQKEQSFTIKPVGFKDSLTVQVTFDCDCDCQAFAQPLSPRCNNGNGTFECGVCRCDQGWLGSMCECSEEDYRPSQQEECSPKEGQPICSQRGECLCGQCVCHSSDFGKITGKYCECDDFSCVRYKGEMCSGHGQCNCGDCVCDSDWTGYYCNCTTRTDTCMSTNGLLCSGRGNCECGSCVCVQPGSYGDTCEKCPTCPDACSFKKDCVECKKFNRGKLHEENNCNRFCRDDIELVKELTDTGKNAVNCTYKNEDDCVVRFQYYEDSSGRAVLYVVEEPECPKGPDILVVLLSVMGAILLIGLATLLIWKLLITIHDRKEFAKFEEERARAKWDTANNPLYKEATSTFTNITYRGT

- radiochemical purity (HPLC) ([1]; Ex 4-3, addition of cysteine after reaction, NaOH mixed, 0 hour): 98.06%
- radiochemical purity (HPLC) ([1]; Ex 4-3, addition of cysteine after reaction, NaOH mixed, 1 hour): 95.17%
- radiochemical purity (HPLC) ([1]; Ex 4-3, addition of cysteine after reaction, NaOH mixed, 2 hours): 94.14%
- radiochemical purity (HPLC) ([1]; Ex 4-3, addition of cysteine after reaction, NaOH mixed, 3 hours): 91.91%
- radiochemical purity (HPLC) ([1]; Ex 4-3, addition of cysteine after reaction, NaOH mixed, 4 hours): 89.00%
- radiochemical purity (HPLC) ([1]; Ex 4-3, addition of cysteine after reaction, NaOH separately, 0 hour): 99.39%
- radiochemical purity (HPLC) ([1]; Ex 4-3, addition of cysteine after reaction, NaOH separately, 1 hour): 99.04%
- radiochemical purity (HPLC) ([1]; Ex 4-3, addition of cysteine after reaction, NaOH separately, 2 hours): 97.02%
- radiochemical purity (HPLC) ([1]; Ex 4-3, addition of cysteine after reaction, NaOH separately, 3 hours): 91.14%
- radiochemical purity (HPLC) ([1]; Ex 4-3, addition of cysteine after reaction, NaOH separately, 4 hours): 66.87%
- radiochemical purity (HPLC) ([1]; solution of Example 2-12 (165 nmol cysteine), pH 5.5, 0 hr): 100%
- radiochemical purity (HPLC) ([1]; solution of Example 2-12 (165 nmol cysteine), pH 5.5, 2 hr): 85.49%
- radiochemical purity (HPLC) ([1]; solution of Example 2-12 (165 nmol cysteine), pH 5.5, 4 hr): 82.11%
- radiochemical purity (HPLC) ([1]; solution of Example 2-12 (165 nmol cysteine), pH 7, 0 hr): 100%
- radiochemical purity (HPLC) ([1]; solution of Example 2-12 (165 nmol cysteine), pH 7, 2 hr): 94.88%
- radiochemical purity (HPLC) ([1]; solution of Example 2-12 (165 nmol cysteine), pH 7, 4 hr): 85.55%
- radiochemical purity (HPLC) ([1]; solution of Example 2-12 (165 nmol cysteine), pH 8.5, 0 hr): 100%
- radiochemical purity (HPLC) ([1]; solution of Example 2-12 (165 nmol cysteine), pH 8.5, 2 hr): 50.64%
- radiochemical purity (HPLC) ([1]; solution of Example 2-12 (165 nmol cysteine), pH 8.5, 4 hr): 23.98%
- radiochemical purity (HPLC) ([1]; solution of Example 2-13 (82.5 nmol cysteine + 82.5 nmol VB1), pH 5.5, 0 hr): 100%
- radiochemical purity (HPLC) ([1]; solution of Example 2-13 (82.5 nmol cysteine + 82.5 nmol VB1), pH 5.5, 2 hr): 100%
- radiochemical purity (HPLC) ([1]; solution of Example 2-13 (82.5 nmol cysteine + 82.5 nmol VB1), pH 5.5, 4 hr): 98.63%
- radiochemical purity (HPLC) ([1]; solution of Example 2-13 (82.5 nmol cysteine + 82.5 nmol VB1), pH 7, 0 hr): 100%
- radiochemical purity (HPLC) ([1]; solution of Example 2-13 (82.5 nmol cysteine + 82.5 nmol VB1), pH 7, 2 hr): 100%
- radiochemical purity (HPLC) ([1]; solution of Example 2-13 (82.5 nmol cysteine + 82.5 nmol VB1), pH 7, 4 hr): 94.88%
- radiochemical purity (HPLC) ([1]; solution of Example 2-13 (82.5 nmol cysteine + 82.5 nmol VB1), pH 8.5, 0 hr): 100%
- radiochemical purity (HPLC) ([1]; solution of Example 2-13 (82.5 nmol cysteine + 82.5 nmol VB1), pH 8.5, 2 hr): 94.13%
- radiochemical purity (HPLC) ([1]; solution of Example 2-13 (82.5 nmol cysteine + 82.5 nmol VB1), pH 8.5, 4 hr): 90.17%
- specific uptake in the disease model [2]: high specific uptake
- target to non target ratio ([2]; gamma counter, 2nd hour): 2.7
- counts per minute (CPM)/g value, left artery [2, 3]: 23.5 CPM/g
- counts per minute (CPM)/g value, right artery [2, 3]: 63.9 CPM/g
Structure (SMILES): O=C(O)C[C@H](NC(=O)[C@@H]1CCCN(C(=O)CCC2CCNCC2)C1)c1cncc(OCCNC(=O)CN2CC(=O)[O][99Tc-]3([O]C(=O)C2)[O]C(=O)CN(CC(=O)NCCOc2cncc([C@H](CC(=O)O)NC(=O)[C@@H]4CCCN(C(=O)CCC5CCNCC5)C4)c2)CC(=O)[O]3)c1 [[Tc-99m]GP-105]
- background radioactivity excretion ([2]; microSPECT until 4 hours): quick background radioactivity excretion effect
